Counter-ions that a name gives are not always drawn.

This data set has as its system pre-diabetic and type 2 diabetes mellitus patients. The experiment in a line: Clinical trial: adverse events (safety evaluation). It is filed as in vivo, human. The method, then: From June 2015 to October 2018, a double-blind, randomized, and parallel-controlled trial, studying the effects of the combined use of Bifidobacterium and berberine on pre-diabetic and type 2 diabetes mellitus patients, was conducted in 10 research centers in Xi'an, Yan'an and Shangluo of Shaanxi province, etc., including the First Affiliated Hospital of the Fourth Military Medical University.
The trial included an enrollment stage of 2 weeks and a treatment stage of 16 weeks. After passing the first visit 1 (see V1 in Table 1), the subjects entered the enrollment stage, i.e., 2 weeks of lifestyle intervention, followed by a re-screening (see V2 in Table 1). The subjects were subjected to a 16-week course of treatment after passing the screening. See Table 1 for the detailed screening parameters.
After the enrollment stage, the baseline data of the 300 successfully enrolled subjects were collected. Meanwhile, the subjects started to receive lifestyle guidance, and were randomly divided into four groups for 16 weeks of treatments.
1) Bifidobacterium group: the subjects were administered with Bifidobacterium capsules (Livzon Pharmaceutical Group Inc., batch no.: 20141013), 0.35 g/capsule, each capsule containing 50,000,000 viable bacteria (Bifidobacterium adolescentis DM8504), 2 capsules/time, 2 times/day, plus berberine placebo tablets (Northeast Pharma Group Shenyang First Pharma Co., Ltd., Lot no.: 20150101, containing 80.2% microcrystalline cellulose, 9.4% pregelatinized starch, 6.4% sodium carboxymethyl starch, 1% magnesium stearate, and 3% copovidone), 0.1 g/tablet, 5 tablets/time, 2 times/day.
2) Berberine group: the subjects were administered with berberine tablets (Northeast Pharma Group Shenyang First Pharma Co., Ltd., Lot no.: 130917, each tablet weighted 0.165 g and contained 0.1 g active berberine ingredient (berberine hydrochloride), with the same excipients as the placebo tablets), 5 tablets/time, 2 times/day, plus Bifidobacterium placebo capsules (Livzon Pharmaceutical Group Inc., Lot no.: 141001, specifically containing 0.348 g spray-dried lactose, and 0.002 g magnesium stearate), 0.35 g/capsule, 2 capsules/time, 2 times/day.
3) Combination Group: the subjects were administered with Bifidobacterium capsules, 0.35 g/capsule, each capsule containing 50,000,000 viable bacteria (B. adolescentis DM8504), 2 capsules/time, 2 times/day, plus berberine tablets, 0.1 g/tablet, each tablet containing 0.1 g active berberine ingredient (berberine hydrochloride), 5 tablets/time, 2 times/day.
4) Control group: the subjects were administered with Bifidobacteria placebo capsules, 0.35 g/capsule, 2 capsules/time, 2 times/day, plus berberine placebo tablets, 0.1 g/tablet, 5 tablets/time, 2 times/day.
Bifidobacterium capsules were taken after meals and berberine tablets were taken before meals.
After the sample testing was finished, 1) Chi-Squared test and t-test were used to evaluate the intergroup balance of the baseline data including the demographic characteristics and pre-treatment indicators, wherein the baseline data referred to those collected at the second visit, before the formal administration, the data collected at the first visit on the enrollment stage were used instead if the data at the second visit was lacking; 2) two-way disordered CM-CH11, Kruska-Wilcox test, etc. were used for analysis and intergroup comparison of pre- and post-treatment indicators such as fasting plasma glucose (FPG), HbA1c, plasma glucose at 2 hours post OGTT (2-h PPG), blood pressure, blood lipids, body weight and BMI; 3) adverse events and hypoglycemia events were described in terms of the type, frequency and relevance with the drugs, for safety evaluation. Software SAS 9.1.3 was used for statistical analysis with all analysis processes being programmed.
All subjects who followed the intent-to-treat principle, grouped randomly, and received the treatment trial and at least one efficacy evaluation were included in the full Analysis Set (FAS). […]

`COc1ccc2cc3[n+](cc2c1OC)CCc1cc2c(cc1-3)OCO2` [Berberine, berberine hydrochloride]: where the note is “throughout the trial”, the Adverse event rate is on record as 81.63%; the “Event rate of adverse events correlated with medications” value was determined as 18.37%; the “Number of adverse events correlated with medications (abdominal discomfort, abnormal bowel movement)” value stood at 19; the “Number of subjects with adverse events” value was 40. For the same compound, the “Number of subjects with adverse events correlated with medications” value (throughout the trial) was determined as 9.
On to Bifidobacterium, for which, for the setting “human, in vivo”, the Adverse event rate came to 84%; the “Event rate of adverse events correlated with medications” value is given as 21.0%; the “Number of adverse events correlated with medications (abdominal discomfort, abnormal bowel movement)” value stood at 30; the “Number of adverse events reported” value is 203. Besides, where the note is “human, in vivo”, the “Number of subjects with adverse events” value was found to be 84 and the “Number of subjects with adverse events correlated with medications” value is reported as 21.

For the origin of these results see patent publication US20220202882A1, “EFFECT OF COMBINATION OF BIFIDOBACTERIUM AND BERBERINE ON PRE-DIABETES AND TYPE 2 DIABETES” (The Fourth Military Medical University, priority 2018, published 2022).
